Test results from ChEMBL document CHEMBL5131413, “Cytotoxic effects of the biflavonoids isolated from Selaginella trichoclada on MCF-7 cells and its potential mechanism” (Bioorg Med Chem Lett, 2022).
Calls of active or inactive are those of the source. The calls are words filed in the database; no cut-off is given here.

Columns and labels:
Format in all cases: functional, cell-based
MCF7 [1] = experiment: Cytotoxicity against human MCF7 cells measured after 24 hrs by MTT assay; conditions: MCF7, 24 h
MCF7 [2] = experiment: Downregulation of STEAP3 gene in human MCF7 cells at 5 uM by heat map analysis
MCF7 [3] = experiment: Downregulation of ACSL4 gene in human MCF7 cells at 5 uM by heat map analysis
MCF7 [4] = experiment: Downregulation of LPCAT3 gene in human MCF7 cells at 5 uM by heat map analysis
MCF7 [5] = experiment: Downregulation of ATG7 gene in human MCF7 cells at 5 uM by heat map analysis
MCF7 [6] = experiment: Downregulation of NOXA1 gene in human MCF7 cells at 5 uM by heat map analysis
MCF7 [7] = experiment: Downregulation of TP53 gene in human MCF7 cells at 5 uM by heat map analysis
MCF7 [8] = experiment: Downregulation of NOXO1 gene in human MCF7 cells at 5 uM by heat map analysis
MCF7 [9] = experiment: Downregulation of ACSL5 gene in human MCF7 cells at 5 uM by heat map analysis

Row | Compound | IC50 (MCF7 [1]) [µM] | also measured
1 | COc1ccc(-c2cc(=O)c3c(O)cc(O)c(-c4cc(-c5cc(=O)c6c(O)cc(O)cc6o5)ccc4O)c3o2)cc1 [PODOCARPUSFLAVONE A] | 35.1 | –
2 | O=c1cc(-c2ccc(O)c(-c3c(O)cc(O)c4c(=O)cc(-c5ccc(O)cc5)oc34)c2)oc2cc(O)cc(O)c12 [AMENTOFLAVONE] | 75.4 | –
3 | O=C1C[C@H](c2ccc(Oc3cc(-c4cc(=O)c5c(O)cc(O)cc5o4)ccc3O)cc2)Oc2cc(O)cc(O)c21 | 7.7 | –
4 | Cc1c(O)cc2c(c1O)C(=O)C[C@H](c1ccc(Oc3cc(-c4cc(=O)c5c(O)cc(O)cc5o4)ccc3O)cc1)O2 | 32.2 | –
5 | O=c1[nH]cc(F)c(=O)[nH]1 [FLUOROURACIL] | 2.2 | –
6 | O=c1cc(-c2ccc(Oc3cc(-c4cc(=O)c5c(O)cc(O)cc5o4)ccc3O)cc2)oc2cc(O)cc(O)c12 [OCHNAFLAVONE] | 54.5 | –
7 | COc1ccc(-c2cc(=O)c3c(O)cc(O)cc3o2)cc1-c1c(O)cc(O)c2c(=O)cc(-c3ccc(O)cc3)oc12 [BILOBETIN] | 26.5 | –
8 | COc1cc(O)c2c(=O)cc(-c3ccc(O)c(-c4c(O)cc(O)c5c(=O)cc(-c6ccc(O)cc6)oc45)c3)oc2c1 [SEQUOIAFLAVONE] | 58.4 | –
9 | O=C1CC(c2ccc(O)c(-c3c(O)cc4c(c3O)C(=O)CC(c3ccc(O)cc3)O4)c2)Oc2cc(O)cc(O)c21 (stereo not drawn) | 71.2 | –
10 | COc1cc(O)c2c(=O)cc(-c3ccc(O)c(-c4c(O)cc5oc(-c6ccc(O)cc6)cc(=O)c5c4OC)c3)oc2c1 | 6.9 | inhibition (MCF7 [2]): Active; inhibition (MCF7 [3]): Active; inhibition (MCF7 [4]): Active; inhibition (MCF7 [5]): Active; inhibition (MCF7 [6]): Active; inhibition (MCF7 [7]): Active; inhibition (MCF7 [8]): Active; inhibition (MCF7 [9]): Active
